Columns and labels:
[1] = target: cGMP PDE; experiment: Phosphodiesterase (PDE) inhibitory activity, cGMP substrate; assay type: biochemical; conditions: cGMP as substrate, crude enzyme from rat brains; read-out: I50 cGMP PDE
Method: (§1) The test was carried out following essentially the method of A. L. Pichard and Y. U. Chung [Journal of Biological Chemistry, 251, 5726-5737 (1976)]. A crude enzymatic solution derived from rat brains was used as the source of cAMP PDE.
(§2) ^14 C-labeled cAMP was used as the substrate. It was employed in a 0.2M Tris-hydrochloric acid buffer solution (pH 8.0) in an amount sufficient to provide a final concentration of 0.14 μM. "Tris" is tris(hydroxymethyl)aminomethane. The substrate solution was mixed with an appropriate amount of the compound under test dissolved in 2-5 μl of dimethyl sulfoxide and with 20 μl of a snake venom solution and 40 μl of the crude enzyme solution. Sufficient Tris-hydrochloric acid buffer was added to make a total volume of 100 μl. The mixture was allowed to react at 30° C. for 20 minutes. At the end of this time, the reaction mixture was treated with an Amberlite (trade mark) IRP-58 resin and the level of residual adenosine radioactivity in the product was determined.
The experiment was repeated, except that cyclic guanosine monophosphate (cGMP) was employed as the substrate instead of cAMP. The I50 value against cGMP PDE was also calculated.

[2] = target: cAMP PDE; experiment: Phosphodiesterase (PDE) inhibitory activity, cAMP substrate; assay type: biochemical, rat; conditions: 0.14 μM 14C-labeled cAMP, pH 8.0, 30° C., 20 minutes, crude enzyme from rat brains; read-out: I50 cAMP PDE
Method: as §1, §2

[3] = system: cerebral blood flow; experiment: Improving cerebral blood flow; assay type: in vivo, rabbit
Excerpt: The "duration (T1/2)" is the time in minutes required for the increase in cerebral blood flow to reduce by one half.

Row | Compound | IC50 [1] [µM] | IC50 [2] [µM] | further results
1 | Nc1ncnc2c1ncn2C1OC2=CC(C(=O)O)([C@@H](O)C(=O)O)OC2[C@H]1OC(=O)c1ccccc1 (stereo partly shown) [Compound No. 36, O^2' -benzoylgriseolic acid] | 48 | 6.8 | –
2 | Nc1ncnc2c1ncn2C1OC2=CC(C(=O)O)([C@@H](OC(=O)c3ccccc3)C(=O)O)OC2[C@H]1O (stereo partly shown) [Compound No. 37, O^7' -benzoylgriseolic acid] | 2.9 | 0.31 | –
3 | O=C(Nc1ncnc2c1ncn2C1OC2=CC(C(=O)O)([C@@H](OC(=O)c3ccccc3)C(=O)O)OC2[C@H]1O)c1ccccc1 (stereo partly shown) [Compound No. 39, N^6,O^7' -dibenzoylgriseolic acid] | 111 | 33 | –
4 | Nc1ncnc2c1ncn2C1OC2=CC(C(=O)O)([C@@H](OC(=O)c3ccccc3)C(=O)O)OC2[C@H]1OC(=O)c1ccccc1 (stereo partly shown) [Compound No. 40, O^2',O^7' -dibenzoylgriseolic acid] | 90 | 3.2 | –
5 | CC(=O)O[C@@H]1C2OC(C(=O)O)([C@@H](OC(C)=O)C(=O)O)C=C2OC1n1cnc2c(N)ncnc21 (stereo partly shown) [Compound No. 41, O^2',O^7' -diacetylgriseolic acid] | 243 | 9.3 | –
6 | N=c1c2ncn(C3OC4=CC(C(=O)O)([C@@H](O)C(=O)O)OC4[C@H]3O)c2ncn1Cc1ccccc1 (stereo partly shown) [Compound No. 45, N^1 -benzylgriseolic acid] | 1.2 | 0.6 | –
7 | CC(=O)O[C@@H](C(=O)O)C1(C(=O)O)C=C2OC(n3cnc4c(=N)n(Cc5ccccc5)cnc43)[C@H](O)C2O1 (stereo partly shown) [Compound No. 46, O^7' -acetyl-N^1 -benzylgriseolic acid] | 0.9 | 1.8 | –
8 | O=C(O)C(O)C1(C(=O)O)C=C2OC(n3cnc4c(=O)[nH]cnc43)C(O)C2O1 (stereo not shown) [Compound No. 51, 6-desamino-6-hydroxygriseolic acid] | 0.13 | 0.32 | –
9 | O=C(O)[C@H](O)C1(C(=O)O)C=C2OC(n3cnc4cncnc43)[C@H](O)C2O1 (stereo partly shown) [Compound No. 53, 6-desamino-6-hydrogriseolic acid] | 1.2 | 14 | –
10 | CNc1ncnc2c1ncn2C1OC2=CC(C(=O)O)([C@@H](O)C(=O)O)OC2[C@H]1O (stereo partly shown) [Compound No. 58, N^6 -methylgriseolic acid] | 14 | 2 | –
11 | CN(C)c1ncnc2c1ncn2C1OC2=CC(C(=O)O)([C@@H](O)C(=O)O)OC2[C@H]1O (stereo partly shown) [Compound No. 59, N^6 -dimethylgriseolic acid] | 39 | 31 | –
12 | NNc1ncnc2c1ncn2C1OC2=CC(C(=O)O)([C@@H](O)C(=O)O)OC2[C@H]1O (stereo partly shown) [Compound No. 60, 6-desamino-6-hydrazinogriseolic acid] | 4.8 | 5.4 | –
13 | O=C(O)[C@H](O)C1(C(=O)O)C=C2OC(n3cnc4c(NCc5ccccc5)ncnc43)[C@H](O)C2O1 (stereo partly shown) [Compound No. 63, N^6 -benzylgriseolic acid] | 9.7 | 7.4 | –
14 | [N-]=[N+]=N[C@H](C(=O)O)C1(C(=O)O)C=C2OC(n3cnc4c(N)ncnc43)[C@H](O)C2O1 (stereo partly shown) [Compound No. 81, 7'-azido-7'-deoxygriseolic acid] | 13 | 4.4 | –
15 | Nc1ncnc2c1ncn2C1OC2=CC(C(=O)O)(C(Cl)C(=O)O)OC2[C@H]1O (stereo partly shown) [Compound No. 88, 7'-chloro-7'-deoxygriseolic acid] | 14.8 | 1.5 | –
16 | COc1ncnc2c1ncn2C1OC2=CC(C(=O)O)([C@@H](O)C(=O)O)OC2[C@H]1O (stereo partly shown) [Compound No. 124, 6-desamino-6-methoxygriseolic acid] | 4.9 | 10 | –
17 | Nc1ncnc2c1ncn2C1OC2=CC(CC(=O)O)(C(=O)O)OC2[C@H]1O (stereo partly shown) [Compound No. 133, 7'-deoxygriseolic acid] | 1.1 | 0.14 | Duration (T 1/2) ([3]; 10 mg/kg): > 60 min; Increase in cerebral blood flow (Vp), ratio to papaverine 1 mg/kg ([3]; 10 mg/kg): 10
18 | Nc1ncnc2c1ncn2C1OC2=CC(C(=O)O)([C@H](N)C(=O)O)OC2[C@H]1O (stereo partly drawn) [Compound No. 135, 7'(S)-amino-7'-deoxygriseolic acid] | 4.2 | 2 | –
19 | Nc1ncnc2c1ncn2C1OC2=CC(C(=O)O)([C@H](Br)C(=O)O)OC2[C@H]1O (stereo partly drawn) [Compound No. 137, 7'(S)-bromo-7'-deoxygriseolic acid] | 19 | 3.4 | –

Row | Compound | IC50 [1] [µM] | IC50 [2] [µM] | further results
20 | O=C(O)CC1(C(=O)O)C=C2OC(n3cnc4c(=O)[nH]cnc43)C(O)C2O1 (stereo not shown) [Compound No. 138, 6-desamino-7'-deoxy-6-hydroxygriseolic acid] | 0.05 | 0.14 | Duration (T 1/2) ([3]; 10 mg/kg): > 60 min; Increase in cerebral blood flow (Vp), ratio to papaverine 1 mg/kg ([3]; 10 mg/kg): 5.5
21 | Nc1ncnc2c1ncn2C1OC2=CC(C(=O)O)([C@H](O)C(=O)O)OC2[C@H]1O (stereo partly drawn) [Compound No. 140, 7'-deoxy-7'(S)-hydroxygriseolic acid] | 2.8 | 0.76 | –
22 | CC(=O)O[C@H](C(=O)O)C1(C(=O)O)C=C2OC(n3cnc4c(N)ncnc43)[C@H](O)C2O1 (stereo partly drawn) [Compound No. 141, 7'(S)-acetoxy-7'-deoxygriseolic acid] | 1.05 | 0.22 | Duration (T 1/2) ([3]; 10 mg/kg): > 60 min; Increase in cerebral blood flow (Vp), ratio to papaverine 1 mg/kg ([3]; 10 mg/kg): 9.2
23 | Nc1ncnc2c1ncn2C1OC2=CC(C(=O)O)([C@@H](O)C(=O)O)OC2[C@@H]1Cl (stereo partly drawn) [Compound No. 142, 2'(S)-chloro-2'-deoxygriseolic acid] | 2.5 | 0.15 | –
24 | Nc1ncnc2c1ncn2C1OC2=CC(C(=O)O)([C@@H](O)C(=O)O)OC2[C@@H]1Br (stereo partly drawn) [Compound No. 143, 2'(S)-bromo-2'-deoxygriseolic acid] | 4.1 | 0.09 | –
25 | Nc1ncnc2c1ncn2C1CC2OC(C(=O)O)([C@@H](O)C(=O)O)C=C2O1 (stereo partly shown) [Compound No. 144, 2'-deoxygriseolic acid] | 1.1 | 0.19 | –
26 | Nc1ncnc2c1nc(Br)n2C1OC23OC(C(=O)O)C(C(=O)O)(OC2[C@H]1O)C3Br (stereo partly drawn) [Compound No. 187, 4',7'-anhydro-5',α,8-dibromo-4'α-hydroxygriseolic acid] | 32 | 35 | –
27 | Nc1ncnc2c1nc(S)n2C1OC2=CC(C(=O)O)([C@@H](O)C(=O)O)OC2[C@H]1O (stereo partly shown) [Compound No. 192, 8-mercaptogriseolic acid] | 49.8 | 30.4 | –
28 | COc1nc2c(N)ncnc2n1C1OC2=CC(C(=O)O)([C@@H](O)C(=O)O)OC2[C@H]1O (stereo partly shown) [Compound No. 195, 8-methoxygriseolic acid] | 3.2 | 3.9 | –
29 | Nc1ncnc2c1nc(Br)n2C1OC2=CC(C(=O)O)([C@@H](O)C(=O)O)OC2[C@H]1O (stereo partly shown) [Compound No. 196, 8-bromogriseolic acid] | 1.7 | 2.5 | –
30 | O=C(O)C(O)C1(C(=O)O)C=C2OC(n3c(Br)nc4c(=O)[nH]cnc43)C(O)C2O1 (stereo not shown) [Compound No. 197, 8-bromo-6-desamino-6-hydroxygriseolic acid] | 13.1 | 25 | –
31 | [N-]=[N+]=N[C@H]1C2OC(C(=O)O)([C@@H](O)C(=O)O)C=C2OC1n1cnc2c(N)ncnc21 (stereo partly drawn) [Compound No. 247, 2'(S)-azido-2'-deoxygriseolic acid] | 6.4 | 0.45 | –
32 | Nc1ncnc2c1ncn2C1OC2=CC(C(=O)O)([C@@H](O)C(=O)O)OC2[C@@H]1N (stereo partly drawn) [Compound No. 248, 2'(S)-amino-2'-deoxygriseolic acid] | 12.7 | 3.2 | –
33 | Nc1ncnc2c1ncn2C1OC2=CC(C(=O)O)([C@@H](O)C(=O)O)OC2[C@@H]1I (stereo partly drawn) [Compound No. 249, 2'-deoxy-2'(S)-iodogriseolic acid] | 2.8 | 0.44 | –
34 | COC(=O)C1=C(C)NC(C)=C(C(=O)OCCN(C)Cc2ccccc2)C1c1cccc([N+](=O)[O-])c1 (stereo not shown) [Nicardipine, reference compound] | – | – | Duration (T 1/2) ([3]; 0.01 mg/kg): 14 min; Increase in cerebral blood flow (Vp), ratio to papaverine 1 mg/kg ([3]; 0.01 mg/kg): 3.2
35 | COc1ccc(Cc2nccc3cc(OC)c(OC)cc23)cc1OC [Papaverine, papaverine, reference compound] | – | – | Change in blood pressure (pascals) ([3]; 1 mg/kg): -1040 pascals; Change in blood pressure mm Hg ([3]; 1 mg/kg): -7.8 mm Hg
36 | CC[C@]12CCCN3CCc4c(n(c5ccccc45)[C@@](O)(C(=O)OC)C1)[C@@H]32 [Vincamine, reference compound] | – | – | Duration (T 1/2) ([3]; 1 mg/kg): 3.2 min; Increase in cerebral blood flow (Vp), ratio to papaverine 1 mg/kg ([3]; 1 mg/kg): 1.7; Duration (T 1/2) ([3]; 2.5 mg/kg): 2.1 min; Increase in cerebral blood flow (Vp), ratio to papaverine 1 mg/kg ([3]; 2.5 mg/kg): 3.2
37 | Cn1c(=O)c2[nH]cnc2n(C)c1=O [theophylline, reference compound] | 196 | 360 | –
